Our source for the melting point values is a melting point compilation (Tetko et al.; mined from patent text by program, amines drawn as free bases though some values may be those of a salt).

Each structure is given as a SMILES string.

The melting point is the temperature, or range, at which the solid turns liquid. `COc1cc(C=C(C(=O)O)c2ccc(O)cc2)cc(OC)c1` came in with a melting point of 135 to 137 °C.
`COc1ccc(N2CCN(Cc3n[nH]c4ccccc34)CC2)nc1`: the melting point is 132 to 134 °C.
The same measure for `CC(C)C(=O)NCc1cccc(-c2nc(=O)c3ccccc3s2)n1`: 189 °C.
Turning to `CCOC(=O)Nc1c(Cl)cc2nc(O)c(O)nc2c1[N+](=O)[O-]`, the melting point was > 300 °C.
`CCCCCCOc1ccc(C(=O)NCCN(O)C(N)=O)cc1`: the melting point was 148 to 151 °C.
Consider `c1csc(-c2nc3cnccc3[nH]2)c1`, for which the melting point was 265 to 268 °C.
In turn, `CCCCCCCCCCCCCCCCCCOc1cc(OCCCCCc2cccc(O)c2O)cc(N(CC(=O)O)CC(=O)O)c1` returned a melting point of 129 to 131 °C.
The same measure for `COCC(=O)N(c1c(C)cccc1C)C1CCOC1=O` (centres undefined): 118 to 120 °C; for `CSc1nnc(C2CCCCC2)c(=O)n1C`: 84 to 88 °C; for `COc1ccc2cc3c(c(-c4ccc5c(c4)OCO5)c2c1OC)CNC3=O`: 255 to 256 °C.
With `COC(=O)c1cc2ccc(N3CCOCC3)cc2c2c1C=CC(c1ccc(OC)cc1)(c1ccc(OC)cc1)O2`, the melting point fell in the range of 154 to 155 °C.
With `COc1ccc(N2CCN(CCC3CN(C)C(=O)O3)CC2)cc1OC` (centres undefined), the melting point is 90 to 92 °C.
To `COc1ccc2cc(-c3nc(-c4ccc(C)cc4)no3)c(=O)oc2c1` belongs 227 °C; to `COCCc1cccc2oc(C(=O)O)c(C)c12`, 138 to 140 °C; to `O=C1c2c(Sc3ccccc3)ccc(Sc3ccc(O)cc3)c2C(=O)c2c(Sc3ccccc3)ccc(Sc3ccc(O)cc3)c21`, > 340 °C.
To `O=S1(=O)N(CCN2CCN(c3ccc(F)cc3)CC2)c2cccc3c2N1CCC3` belongs 118 °C; to `c1ccc(C2(Cn3cncn3)OCCO2)cc1`, 127 °C.
`COc1ccc(C(=O)c2cc(Br)ccc2N)cc1`: the melting point was 120 °C.
`Oc1c(CC2CCCCC2)ccc2ccccc12` displayed a melting point of 53 to 56 °C.
As to `CCCCCCCCC[C@@H](CC(N)=O)N(CCC)C(=O)[C@H](CCCC(=O)O)NC(=O)c1cn(Cc2ccccc2)c2ccccc12`, the melting point was 155 to 160 °C.
The compound `CSc1cccc(-n2cnc(C(=O)O)c2)c1` came in with a melting point of 190 to 192 °C.
The same measure for `COc1cc2ncnc(N3CCN(C(=S)NCc4ccc(OC(F)(F)F)cc4)CC3)c2cc1OC`: 131 to 132 °C.
In the case of `COC(=O)c1sc(C)c(N)c1C`, the melting point lay in the range of 88 to 89 °C.
The compound `CCCc1cc(CC(=O)OC)ccc1OC1COc2ccc(C(C)=O)c(O)c2C1` (centres undefined) showed a melting point of 59 to 60 °C.
For the compound `CC(C)N1CC(Oc2ccc(-c3cccc(N)n3)c3ccccc23)C1`, the melting point lay within 120 to 135 °C.
Take `Cc1cc(-n2ccnc2)c2cccc(OCc3c(Cl)ccc(S(=O)(=O)N4CCC[C@H]4C(=O)NCC4CCN(Cc5cccnc5)CC4)c3Cl)c2n1`: the melting point is 107 °C.
As to `Cc1ncc(CNC(=O)c2sc(N3CCN(CC4CC4)C3=O)nc2C)s1`, the melting point lay in the range of 165 to 167 °C.
Take `O=C1CN2C(=N1)NCc1c(Cl)cccc12`: the melting point fell in the range of 127 to 129 °C.
Turning to `CCCc1ccc2nc(Cl)c(S(=O)(=O)Cl)n2n1`, the melting point lay within 94.2 to 95.5 °C.
The compound `Cc1cc(Cl)c(C(=O)c2ccccc2)c(Cl)c1` displayed a melting point of 75.5 to 76.5 °C.
Compound `CCOC(=O)c1cc(Cl)c(OCc2ccccc2)c(Cl)c1` yielded a melting point of 66 to 68 °C.
Compound `COC1C(OC(=O)NC(=O)CCl)CCC(O)(CSC)C1C1(C)OC1CC=C(C)C` (centres undefined) registered a melting point of 101 to 102 °C.
For the compound `Cc1cc(OCC(O)CNC(C)(C)C)c2cc(C(N)=O)[nH]c2c1` (centres undefined), the melting point lay within 213 to 214 °C.
Compound `CC(C)(C(=O)O)c1nc2ccc(NCCCN3CCC(OC(c4ccccc4)c4ccccc4)CC3)nn2c1Cl` displayed a melting point of 133 to 135 °C.
Compound `O=C1NC(C(Cl)(Cl)Cl)Nc2ccccc21` (centres undefined) registered a melting point of 201 to 202 °C.
On to `Cc1cc(-c2cccc(C(F)(F)F)c2)n2nc(C(F)(F)F)nc2n1`, for which the melting point was 133 to 134 °C.
`CCOC(=O)C1C(=O)c2ccccc2OC1C(F)(F)F` (centres undefined) returned a melting point of 80.2 to 84.9 °C.
`COc1cc2c(cc1Nc1ncc(Cl)c(Nc3ccccc3S(C)(=O)=O)n1)CCN(CC(N)=O)CC2` came in with a melting point of 111 to 123 °C.
`COc1cc2c(cc1OC)CN(C(=O)Cc1ccc(OC)c([N+](=O)[O-])c1)CC2` displayed a melting point of 175 °C.
The compound `O=C1CCc2ccc(OCCCCN3CCN(c4cccc5c4CCCC5=O)CC3)nc2N1` showed a melting point of 169 to 170 °C.
The compound `CC(C)SC(Cc1ccc(OCCN(C)c2nc3ccccc3o2)cc1)C(=O)O` (centres undefined) yielded a melting point of 144 to 145 °C.
`COc1cccc(OC)c1-c1ccc(C[C@H](NC(=O)c2c(Cl)cc(F)cc2Cl)C(=O)O)cc1`: the melting point lay within 206 to 207 °C.
As for `CN1CCC(Oc2cccc(Cn3cnc4cc(-c5ccc(Cl)cc5)sc4c3=O)n2)CC1`, the melting point fell in the range of 202 to 203 °C.
In turn, `CCOC(=O)CC=Cc1ccc2ccccc2c1O` yielded a melting point of 83 to 84 °C.
To `O=C(O)Cn1c(=O)c(=O)[nH]c2cc([N+](=O)[O-])c(Cl)cc21` belongs > 280 °C.
`COc1cc(N2CCN([C@H](C)c3ccc(OC)c(OC)c3)CC2)ccc1Cl`: the melting point fell in the range of 172 to 176 °C.
`CS(=O)(=O)Nc1cc(N)ccc1Oc1ccccc1` gave a melting point of 112 to 114 °C.
For the compound `Nc1nc(-c2cc(-c3c(F)cccc3Cl)no2)cs1`, the melting point was 168 to 169 °C.
`Cc1ccc2cccc(OCc3c(Cl)ccc(S(=O)(=O)NC(C)(C)C)c3Cl)c2n1` came in with a melting point of 191 °C.
The same measure for `CCCCN(CCCC)CCCNS(=O)(=O)c1ccc2c(c1)C(=O)c1cc(S(=O)(=O)NCCCN(CCCC)CCCC)ccc1C2=O`: 93 to 95 °C; for `O=[N+]([O-])C=C1SCCN1Cc1ccco1`: 190 to 192 °C; for `NCCSc1c(S(=O)(=O)c2ccccc2)c2ccccc2n1Cc1ccccc1`: 149 to 150 °C.
`COC(C)(CC(=O)Nc1cccc(OC(=O)NC2CCCCC2)c1)OC` had a melting point of 163 °C.
The same measure for `O=C(Nc1cc2ncc(CN3CCCC3)cc2cc1F)c1ccc(-c2ccccc2)cc1F`: 163 to 164 °C; for `C#CC(C)OC(=O)c1cccc2ccccc12` (centres undefined): 66 to 68 °C; for `COC(=O)c1ccc(C(F)(F)F)nc1S(=O)(=O)NC(C)(C)C`: 76 to 83 °C.
`O=C1Cc2cc(CCN3CCN(c4nsc5ccccc45)CC3)c(Cl)cc2N1`: the melting point was in the range of 218 to 220 °C.
The same measure for `CS(=O)(=O)c1ccc(C(CC2CCCC2)c2nc(Br)c(C(=O)C3CC3)[nH]2)cc1` (centres undefined): 160 to 161 °C; for `CCCCCCCCCCCCCCCCCc1nc(C(C)N)c[nH]1` (centres undefined): 38 to 40 °C; for `CN(C(N)=S)c1ccc(-c2ncn(-c3ccc(OC(F)(F)F)cc3)n2)cc1`: 142 to 152 °C.
Consider `COc1ccc(-c2nn(C3CCCC3)c3c(C(F)(F)F)cccc23)c(OC)c1`, for which the melting point was in the range of 79 to 80 °C.
Take `C[Si](C)(C)OC1(C#N)CCC(C(=O)NCc2cccc3ccccc23)c2ccccc21` (centres undefined): the melting point is 55 to 56 °C.
As to `CN1C(=O)CCC2(C)C1=CCC1C2CCC2(C)C(O)CCC12` (centres undefined), the melting point was in the range of 181 to 183 °C.
The compound `O=Cc1c(Cl)ccc(C(=O)O)c1Cl` had a melting point of 188 to 190 °C.
In turn, `C=CCc1cc(C(C)=O)c(O)cc1OCCCCCC(N)=O` gave a melting point of 122 to 124 °C.
`CC(C)(C)c1cc(-c2ccccc2NC(=O)CCCC(=O)O)cc(C(C)(C)C)c1O` returned a melting point of 132 to 134 °C.
Compound `CC(C)(C)OC(=O)N1CCC(N2C(=O)OCc3cc(Cl)ccc32)CC1` displayed a melting point of 177 to 179 °C.
Regarding `COc1ccc(C2=CCCS(=O)C2)cc1OC1CCCC1` (centres undefined), the melting point fell in the range of 92 to 93 °C.
With `NS(=O)(=O)NCC1COc2ccccc2O1` (centres undefined), the melting point fell in the range of 97.5 to 98.5 °C.
To `CCn1cc(C(=O)O)c(=O)c2c(F)c(F)c(N3CCCC3)c(F)c21` belongs > 320 °C; to `COc1cc(OC)nc(Oc2cccc3c2C(=O)OC3O)n1` (centres undefined), 143 to 145 °C; to `COC(=O)CCc1ccc(N2CCN(c3ccc(C(=N)NC(=O)OC)cc3)C2=O)cc1`, > 260 °C.
Take `Cc1csc(C2(c3cccs3)CCCO2)n1` (centres undefined): the melting point lay in the range of 59 to 60 °C.
As to `CCOC(=O)Cc1ccc(NC(=O)C(COc2ccccc2Cl)NS(=O)(=O)c2ccc(Cl)cc2)cc1` (racemic), the melting point lay in the range of 141 to 142 °C.
Consider `CC(C)OC(=O)C=CC(=O)NC(N)=O`, for which the melting point lay in the range of 113 to 114 °C.
`NS(=O)(=O)c1ncccc1O` returned a melting point of 162 to 164 °C.
Take `O=C1CCCc2cc(OCc3ccccc3)ccc21`: the melting point was in the range of 95 to 97 °C.
As to `CN1C(=O)C2(COc3cc4c(cc32)OCCO4)c2c(Oc3ccc(F)cc3)cccc21` (centres undefined), the melting point is 151 to 153 °C.
Regarding `CS(=O)(=O)NC(=O)CCCCCCCCCCCNC(=O)NC12CC3CC(CC(C3)C1)C2`, the melting point was determined as 103 °C.
To `Nc1ccccc1C(=O)N1Cc2ccccc2C(=O)N1` belongs 156 to 157 °C; to `COc1ccc(-c2nn(C(C)C)c(=O)c(C(N)=O)c2-c2ccc(OC)cc2)cc1`, 165 to 166 °C.
In turn, `CC(C(=O)O)c1ccc2onc(-c3ccc(Cl)cc3)c2c1` (centres undefined) came in with a melting point of 137 to 139 °C.
For `C=CCc1c(O)ccc2c1C(CCNC(=O)CC)CN2C=O` (centres undefined), the melting point lay in the range of 173 to 175 °C.
As for `N#Cc1ccc(NC(=NS(=O)(=O)c2ccccc2)NCC(=O)O)cc1`, the melting point was 133 °C.
To `Cc1cc(C(=O)O)cc(C)c1C(O)c1cc(-n2ccnc2)ccc1Cl` (centres undefined) belongs 317 to 320 °C; to `Cc1onc(-c2ccc(Cl)o2)c1-c1ccccc1`, 71 to 73 °C; to `CS(=O)(=O)Nc1cccc(Nc2nc(OC3CCCC3)c3nc[nH]c3n2)c1`, 137 to 140 °C.
In turn, `CC(=O)Nc1ccc(-c2nc3ccccc3o2)cc1` showed a melting point of 214 to 215 °C.
`ICCCCCCOc1ccc(C2=C(c3ccccc3)CCCc3cc(OC4CCCCO4)ccc32)cc1` (centres undefined) returned a melting point of 108 to 110 °C.
